The values below come from patent US12281308B2, “Inhibition of protein kinases to treat Friedreich ataxia” (University of Massachusetts, priority 2018, dated 2025).

Data set [1] has as its system mutant FXN gene. The data set is described as follows: Massively parallel short-read sequencing (RNA-seq) of FXN transcript levels in FRDA neurons. It is filed as cell-based, human. The settings on record: vs DMSO, Illumina platform.
Data set [2] deals with ACO2 and ISCU. As to the kind of experiment: Immunoblot analysis of mitochondrial Fe-S proteins in FRDA neurons. The settings on record: fasudil 1 μM, KD025 1 μM, ripasudil 0.5 μM. The data set is classed as cell-based, human. For orientation: Immunoblotting shows a protein as a band on a membrane.
Data set [3] has as its system ACO2 and ISCU. As to the kind of experiment: Immunoblot analysis of mitochondrial Fe-S proteins in FRDA cardiomyocytes. It is filed as cell-based, human. The following applies: fasudil 1 μM, KD025 1 μM, ripasudil 0.5 μM.
Data set [4] has as its system FRDA neurons. As to the kind of experiment: Mitochondrial oxygen consumption rate (Agilent Seahorse XF Analyzer) in FRDA neurons. The data set is classed as cell-based, human. The settings on record: small molecule ROCK1/2 inhibitor. The source says: (§1) FIGS. 3A-D. Inhibition of protein kinase FXN-RFs can ameliorate characteristic mitochondrial defects of FRDA post-mitotic neurons and cardiomyocytes. (A, B) Quantification of flow cytometry analysis of normal and FRDA neurons (A) or normal and FRDA CMCs (B) expressing an FXN-RF shRNA and stained with MitoSOX. (C, D) Analysis of the mitochondrial oxygen consumption rate in normal and FRDA neurons (C) or normal and FRDA CMCs (D) expressing an FXN-RF shRNA. […] (C, D) Analysis of the mitochondrial oxygen consumption rate in FRDA neurons (C) or FRDA CMCs (D) treated with a small molecule ROCK1/2 inhibitor. (E, F) Immunoblot analysis showing levels of mitochondrial proteins ACO and ISCU in FRDA neurons (E) or FRDA CMCs (F) treated with fasudil (1 μM), KD025 (1 μM), or ripasudil (0.5 μM). […] We next asked whether FXN-RF inhibition could ameliorate two characteristic mitochondrial defects of FRDA neurons and cardiomyocytes: increased levels of reactive oxygen species (ROS) and decreased oxygen consumption. In the first set of experiments, FRDA neurons and cardiomyocytes expressing a protein kinase FXN-RF shRNA were stained with MitoSOX (an indicator of mitochondrial superoxide levels and mitochondrial ROS production) followed by flow cytometry analysis. As expected. FRDA neurons and cardiomyocytes had increased levels of mitochondrial ROS production compared to normal neurons and cardiomyocytes (FIGS. 3A, B). […] In the second set of experiments, we measured mitochondrial oxygen consumption rate, which is related to ATP production, using an Agilent Seahorse XF Analyzer. As expected, mitochondrial oxygen consumption rate in FRDA neurons and cardiomyocytes was ˜60% of the level observed in normal neurons and cardiomyocytes (FIGS. 3C, D).

For data set [5], the system named is FRDA cardiomyocytes. The data set is described as follows: Mitochondrial oxygen consumption rate (Agilent Seahorse XF Analyzer) in FRDA cardiomyocytes. The data set is classed as cell-based, human. The following applies: small molecule ROCK1/2 inhibitor.
Excerpt: as §1

The test system of data set [6] is ROCK1/2. The following applies: literature; cited from earlier work.
Data set [7] has as its system ROCK1. The data set is described as follows: qRT-PCR analysis monitoring ROCK1 expression (shRNA knockdown) in FRDA (GM23404) iPSCs. It is filed as cell-based, human. The settings on record: FRDA (GM23404) iPSCs expressing the shRNA. The source says: (§2) FIGS. 4A-E. Identification of ROCK2 as a protein kinase that mediates repression of the mutant FXN gene. (A) qRT-PCR analysis monitoring ROCK1 and ROCK2 expression in FRDA (GM23404) iPSCs expressing the two ROCK1 shRNAs used in the experiments shown in FIGS. 1-3 (hereafter called ROCK1-1 and ROCK1-2). […] (B) qRT-PCR analysis monitoring knockdown efficiencies of selective ROCK1 (ROCK1-3) and ROCK2 shRNAs.
(§3) Of the 8 new FXN-RFs that we identified, we are particularly enthusiastic about ROCK1, a serine-threonine kinase and major effector of the small GTPase RhoA (Schofield and Bernard, Crit Rev Biochem Mol Biol, 2013, 48 (4): 301-316. ROCK1 phosphory lates a variety of substrates, some of which can affect cell signaling pathways, such as PI3K/AKT (Ruth et al., J Invest Dermatol, 2006, 126 (4): 862-868), and transcription factors, such as NF-kB (Shimizu et al., Mol Hum Reprod, 2007, 13 (3): 181-187) and Runx2 (Huang et al., Exp Ther Med, 2018, 15 (5): 4457-4464). In addition to ROCK1, mammalian cells express another ROCK isoform encoded by a distinct gene, ROCK2. […] ROCK1 and ROCK2 share ˜65% overall amino acid identity and 92% identity in their kinase domains, with 100% identity within their ATP-binding pockets (Nakagawa et al., FEBS Lett, 1996, 392 (2): 189-193; Takahashi et al., Genomics, 1999, 55 (2): 235-237). […] Thus, both ROCK1 and ROCK2 are protein kinase FXN-RFs.

Data set [8] deals with ROCK2. As to the kind of experiment: qRT-PCR analysis monitoring ROCK2 expression (shRNA knockdown) in FRDA (GM23404) iPSCs. It is filed as cell-based, human. The settings on record: FRDA (GM23404) iPSCs expressing the shRNA.
Excerpt: as §2, §3

For `CC(C)NC(=O)COc1cccc(-c2nc(Nc3ccc4[nH]ncc4c3)c3ccccc3n2)c1` [KD025], the “FXN transcript levels (RNA-seq)” value in data set [1] was “Upregulation of the mutant FXN gene”. In data set [2], the “levels of ACO2” value is “increased levels of ACO2 and ISCU comparable to that observed in normal neurons and cardiomyocytes”; the “levels of ISCU” value is “increased levels of ACO2 and ISCU comparable to that observed in normal neurons and cardiomyocytes”. Further, in data set [3], the “levels of ACO2” value is “increased levels of ACO2 and ISCU comparable to that observed in normal neurons and cardiomyocytes”; the “levels of ISCU” value was “increased levels of ACO2 and ISCU comparable to that observed in normal neurons and cardiomyocytes”.

Take `C[C@@H](N)[C@H]1CC[C@H](C(=O)Nc2ccncc2)CC1.Cl.Cl` [Y27632, (+)-(R)-trans-4-(1-aminoethyl)-N-(4-pyridyl)cyclohexanecarboxamide dihydrochloride]: the “mitochondrial oxygen consumption rate” value in data set [4] and in data set [5] was “increased mitochondrial oxygen consumption rate” in each case.

Regarding `O=S(=O)(c1cccc2cnccc12)N1CCCNCC1` [fasudil, 1-(5-isoquinolinesulfonyl)-homopiperazine], in data set [1], the “FXN transcript levels (RNA-seq)” value is given as “Upregulation of the mutant FXN gene”. Besides, the “mitochondrial oxygen consumption rate” value in data set [4] and in data set [5] was “increased mitochondrial oxygen consumption rate” throughout. Further, the “levels of ACO2” value in data set [2] is “increased levels of ACO2 and ISCU comparable to that observed in normal neurons and cardiomyocytes”; in data set [3] it was “increased levels of ACO2 and ISCU comparable to that observed in normal neurons and cardiomyocytes”. The “levels of ISCU” value is “increased levels of ACO2 and ISCU comparable to that observed in normal neurons and cardiomyocytes” in data set [2]; “increased levels of ACO2 and ISCU comparable to that observed in normal neurons and cardiomyocytes” in data set [3]. For the same compound, the oral activity entry in data set [6] is listed as “orally active”. The “tolerability / adverse effects” value in data set [6] is listed as “well tolerated without adverse effects”.

For `C[C@H]1CNCCCN1S(=O)(=O)c1cccc2cncc(F)c12` [ripasudil, 4-fluoro-5-[[(2S)-2-methyl-1,4-diazepan-1-yl]sulfonyl]isoquinoline], in data set [4], the “mitochondrial oxygen consumption rate” value is given as “increased mitochondrial oxygen consumption rate”. Also, in data set [5], the “mitochondrial oxygen consumption rate” value was “increased mitochondrial oxygen consumption rate”. In data set [2], the “levels of ACO2” value is “increased levels of ACO2 and ISCU comparable to that observed in normal neurons and cardiomyocytes”; the “levels of ISCU” value was “increased levels of ACO2 and ISCU comparable to that observed in normal neurons and cardiomyocytes”. Moreover, in data set [3], the “levels of ACO2” value was “increased levels of ACO2 and ISCU comparable to that observed in normal neurons and cardiomyocytes”; the “levels of ISCU” value was “increased levels of ACO2 and ISCU comparable to that observed in normal neurons and cardiomyocytes”. Moreover, in data set [6], the oral activity result is reported as “orally active” and the “tolerability / adverse effects” value is given as “well tolerated without adverse effects”.

For the compound “ROCK1-1: ROCK1 shRNA (1), SEQ ID NO: 11; knocks down both ROCK1 and ROCK2 (CCGGCGGGTTGTTCAGATTGAGAAACTCGAGTTTCTCAATCTGAACAACCCGTTTTTG)”, the “ROCK1 expression (knockdown)” value in data set [7] was “knocked down both ROCK1 and ROCK2”. The “ROCK2 expression (knockdown)” value in data set [8] was “knocked down both ROCK1 and ROCK2”.

For “ROCK1-2: ROCK1 shRNA (2), SEQ ID NO: 12; knocks down both ROCK1 and ROCK2 (CCGGGCATTCCAAGATGATCGTTATCTCGAGATAACGATCATCTTGGAATGCTTTTTG)”, the “ROCK1 expression (knockdown)” value in data set [7] is “knocked down both ROCK1 and ROCK2”. The “ROCK2 expression (knockdown)” value in data set [8] is “knocked down both ROCK1 and ROCK2”.

Turning to “ROCK1-3: selective ROCK1 shRNA (3), SEQ ID NO: 13 (CCGGGCACCAGTTGTACCCGATTTACTCGAGTAAATCGGGTACAACTGGTGCTTTTTG)”, the “ROCK1 expression (knockdown)” value in data set [7] was “knocked down ROCK1”. The “ROCK2 expression (knockdown)” value in data set [8] is recorded as “knocked down ROCK1 but not ROCK2”.

For “ROCK2 shRNA: selective ROCK2 shRNA, SEQ ID NO: 14 (CCGGGCACCAGTTGTACCCGATTTACTCGAGTAAATCGGGTACAACTGGTGCTTTTTG)”, the “ROCK1 expression (knockdown)” value in data set [7] is “knocked down ROCK2 but not ROCK1”. Moreover, the “ROCK2 expression (knockdown)” value in data set [8] is given as “knocked down ROCK2”.
